Data as given in patent US11358965B2, “EGFR dimer disruptors and use of the same” (THE REGENTS OF THE UNIVERSITY OF MICHIGAN, priority 2018, dated 2022).

Columns and labels:
[1] = system: Ba/F3-AZR cells (L858R+T790M+C797S-EGFR); assay: Osimertinib resistant Ba/F3-AZR ascites tumor model; assay type: in vivo, nude mice; conditions: mouse, in vivo, 30 mg/kg
UMCC92 cells = assay: Clonogenic IC50, UMCC92; assay type: cell-based
cells = assay: Cell Titer Blue % cell viable (24 hrs); assay type: cell-based; conditions: 24 h, Conc 15 μM
Method: The viability of cells upon treatment was assessed by CellTiter-Blue® reagent following the manufacturer's protocol in RKO, UM10B, UM1, MCR5, and UMCC92 cells. Briefly, 10,000 cells were plated in 96-well plate in quadruplets. One day after seeding, cells were treated with a range of concentrations (0.1 to 30 micromolar). […] Only the viable cells convert the redox dye (reszurin) into a fluorescent product (resofurin). The emission of fluorescence (excitation 560 nm) was measured at […]. The IC50 value was calculated as the mean concentration of compounds required to inhibit cell proliferation as measured by the fluorescence at […] by 50 percent compared to the vehicle-treated controls.

RKO cells = assay: Clonogenic IC50, RKO; assay type: cell-based; conditions: Homo sapiens
UM1 cells = assay: Clonogenic IC50, UM1; assay type: cell-based

SMILES	survival [1]	IC50 (UMCC92 cells) [µM]	viability at 15 µM (cells) [%]	IC50 (RKO cells) [µM]	IC50 (UM1 cells) [µM]
C=CC(=O)Nc1cc(Nc2nccc(-c3cn(C)c4ccccc34)n2)c(OC)cc1N(C)CCN(C)C [osimertinib, reference compound]	no difference				
COc1ccc(C2=NC3(CCN(C)CC3)N(CC(=O)Nc3ccc(OC)c(Cl)c3)C2=O)cc1 [Compound 5, N-(3-chloro-4-methoxyphenyl)-2-(3-(4-methoxyphenyl)-8-methyl-2-oxo-1,4,8-triazaspiro[4.5]dec-3-en-1-yl)acetamide]		34	60	11.6	0.9
